Measured values published in the supplement of paper PMC10307832.

Experiments:
Test in all cases: relative viability (nuclei count vs DMSO), 5 days (fraction); higher = more cells survive
[1] = system: HARA
Method in brief: (§1)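 Lung cancer cell lines in 1536-well plates were dosed by pin tool the day after seeding, either with one drug alone or with a fixed anchor-drug dose plus five library-drug doses (not always all listed) in √10 steps. After 5 days, cells were fixed and their nuclei stained in one step (final 0.05% Triton X-100, 1% formaldehyde, 1 ug/ml Hoechst), then counted on 4× images. Relative viability is the nuclei count in treated wells divided by that in vehicle wells. Values are medians of duplicate plates.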

[2] = system: LC-2-ad
Method in brief: as §1

[3] = system: NCI-H522
Method in brief: as §1

[4] = system: LXF-289
Method in brief: as §1

[5] = system: PC-14
Method in brief: as §1

[6] = system: HCC-366
Method in brief: as §1

[7] = system: NCI-H2126
Method in brief: as §1

[8] = system: HCC-15
Method in brief: as §1

[9] = system: NCI-H2009
Method in brief: as §1

[10] = system: COR-L23
Method in brief: as §1

[11] = system: HCC-44
Method in brief: as §1

[12] = system: HCC-827
Method in brief: as §1

[13] = system: LU99A
Method in brief: as §1

[14] = system: NCI-H2087
Method in brief: as §1

[15] = system: BEN
Method in brief: as §1

[16] = system: CAL-12T
Method in brief: as §1

[17] = system: NCI-H727
Method in brief: as §1

[18] = system: HOP-62
Method in brief: as §1

[19] = system: SK-MES-1
Method in brief: as §1

[20] = system: PC-3 [JPC-3]
Method in brief: as §1

[21] = system: NCI-H1993
Method in brief: as §1

[22] = system: COR-L 105
Method in brief: as §1

[23] = system: NCI-H2170
Method in brief: as §1

[24] = system: LCLC-97TM1
Method in brief: as §1

SMILES: CCCCCCCCCCCC1=C(O)C(=O)C=C(O)C1=O [Embelin] + CC(=O)c1c(C)c2cnc(Nc3ccc(N4CCNCC4)cn3)nc2n(C2CCCC2)c1=O [Palbociclib] (partner 0.5 µM)
- relative viability ([1]; first compound 0.08 µM): 0.269
- relative viability ([1]; first compound 0.8 µM): 0.324
- relative viability ([1]; first compound 2.53 µM): 0.301
- relative viability ([1]; first compound 8 µM): 0.32
- relative viability ([2]; first compound 0.08 µM): 0.433
- relative viability ([2]; first compound 0.8 µM): 0.442
- relative viability ([2]; first compound 2.53 µM): 0.535
- relative viability ([2]; first compound 8 µM): 0.516
- relative viability ([3]; first compound 0.08 µM): 1.09
- relative viability ([3]; first compound 0.8 µM): 1.21
- relative viability ([3]; first compound 2.53 µM): 1.01
- relative viability ([3]; first compound 8 µM): 0.983
- relative viability ([4]; first compound 0.08 µM): 0.594
- relative viability ([4]; first compound 0.8 µM): 0.59
- relative viability ([4]; first compound 2.53 µM): 0.649
- relative viability ([4]; first compound 8 µM): 0.613
- relative viability ([5]; first compound 0.08 µM): 0.548
- relative viability ([5]; first compound 0.8 µM): 0.597
- relative viability ([5]; first compound 2.53 µM): 0.819
- relative viability ([5]; first compound 8 µM): 0.569
- relative viability ([6]; first compound 0.08 µM): 0.35
- relative viability ([6]; first compound 0.8 µM): 0.391
- relative viability ([6]; first compound 2.53 µM): 0.49
- relative viability ([6]; first compound 8 µM): 0.453
- relative viability ([7]; first compound 0.08 µM): 0.342
- relative viability ([7]; first compound 0.8 µM): 0.342
- relative viability ([7]; first compound 2.53 µM): 0.345
- relative viability ([7]; first compound 8 µM): 0.339
- relative viability ([8]; first compound 0.08 µM): 0.703
- relative viability ([8]; first compound 0.8 µM): 0.757
- relative viability ([8]; first compound 2.53 µM): 0.857
- relative viability ([8]; first compound 8 µM): 0.774
- relative viability ([9]; first compound 0.08 µM): 0.223
- relative viability ([9]; first compound 0.8 µM): 0.277
- relative viability ([9]; first compound 2.53 µM): 0.208
- relative viability ([9]; first compound 8 µM): 0.186
- relative viability ([10]; first compound 0.08 µM): 0.346
- relative viability ([10]; first compound 0.8 µM): 0.351
- relative viability ([10]; first compound 2.53 µM): 0.313
- relative viability ([10]; first compound 8 µM): 0.299
- relative viability ([11]; first compound 0.08 µM): 0.951
- relative viability ([11]; first compound 0.8 µM): 1.02
- relative viability ([11]; first compound 2.53 µM): 0.984
- relative viability ([11]; first compound 8 µM): 0.979
- relative viability ([12]; first compound 0.08 µM): 0.506
- relative viability ([12]; first compound 0.8 µM): 0.486
- relative viability ([12]; first compound 2.53 µM): 0.511
- relative viability ([12]; first compound 8 µM): 0.461
- relative viability ([13]; first compound 0.08 µM): 0.471
- relative viability ([13]; first compound 0.8 µM): 0.411
- relative viability ([13]; first compound 2.53 µM): 0.394
- relative viability ([13]; first compound 8 µM): 0.374
- relative viability ([14]; first compound 0.08 µM): 0.236
- relative viability ([14]; first compound 0.8 µM): 0.227
- relative viability ([14]; first compound 2.53 µM): 0.266
- relative viability ([14]; first compound 8 µM): 0.248
- relative viability ([15]; first compound 0.08 µM): 0.486
- relative viability ([15]; first compound 0.8 µM): 0.545
- relative viability ([15]; first compound 2.53 µM): 0.486
- relative viability ([15]; first compound 8 µM): 0.481
- relative viability ([16]; first compound 0.08 µM): 0.483
- relative viability ([16]; first compound 0.8 µM): 0.538
- relative viability ([16]; first compound 2.53 µM): 0.331
- relative viability ([16]; first compound 8 µM): 0.553
- relative viability ([17]; first compound 0.08 µM): 0.657
- relative viability ([17]; first compound 0.8 µM): 0.701
- relative viability ([17]; first compound 2.53 µM): 0.693
- relative viability ([17]; first compound 8 µM): 0.661
- relative viability ([18]; first compound 0.08 µM): 0.433
- relative viability ([18]; first compound 0.8 µM): 0.489
- relative viability ([18]; first compound 2.53 µM): 0.451
- relative viability ([18]; first compound 8 µM): 0.392
- relative viability ([19]; first compound 0.08 µM): 0.366
- relative viability ([19]; first compound 0.8 µM): 0.374
- relative viability ([19]; first compound 2.53 µM): 0.321
- relative viability ([19]; first compound 8 µM): 0.297
- relative viability ([20]; first compound 0.08 µM): 0.518
- relative viability ([20]; first compound 0.8 µM): 0.543
- relative viability ([20]; first compound 2.53 µM): 0.571
- relative viability ([20]; first compound 8 µM): 0.511
- relative viability ([21]; first compound 0.08 µM): 0.641
- relative viability ([21]; first compound 0.8 µM): 0.674
- relative viability ([21]; first compound 2.53 µM): 0.721
- relative viability ([21]; first compound 8 µM): 0.614
- relative viability ([22]; first compound 0.08 µM): 0.435
- relative viability ([22]; first compound 0.8 µM): 0.399
- relative viability ([22]; first compound 2.53 µM): 0.405
- relative viability ([22]; first compound 8 µM): 0.439
- relative viability ([23]; first compound 0.08 µM): 0.407
- relative viability ([23]; first compound 0.8 µM): 0.418
- relative viability ([23]; first compound 2.53 µM): 0.516
- relative viability ([23]; first compound 8 µM): 0.382
- relative viability ([24]; first compound 0.08 µM): 0.184
- relative viability ([24]; first compound 0.8 µM): 0.215
- relative viability ([24]; first compound 2.53 µM): 0.262
- relative viability ([24]; first compound 8 µM): 0.242
